# Results reported in PMC8260761, “A bacteriocin-based treatment option for Staphylococcus haemolyticus biofilms” (Scientific Reports, 2021).
# How the values were obtained:
# Assay in all cases: Spot-on-lawn inhibition assay
# Assay type in all cases: cell-based
# L. ivanovii = system: L. ivanovii; design: key: –: “−” = No inhibition; “+” = Unclear zone; “++” = zone < 1 cm; “+++” = zone ≥ 1 cm; details: L. ivanovii Li4; 5 µl at 1 mg/ml; n=3
# Experimental: (§1) A semi-quantitative spot-on-lawn inhibitory assay was performed on 51 bacterial indicator strains (Table S1) to determine the bacteriocins inhibition spectra. Overnight cultures were diluted 1:100 in BHI soft agar and distributed on BHI agar plates. Once solidified, bacteriocins with various concentrations were applied on designated spots. The plates were incubated at appropriate temperature O/N and inhibition zones were measured the following day. To determine minimal inhibitory concentration (MIC50) of H1 against clinical S. haemolyticus isolates (Table S2), as well as strains heterologously expressing RseP (Table S4), the microtiterplate antimicrobial assay was performed as previously described[41],[79]. MIC50 was defined as the minimal bacteriocin concentration needs to inhibit the growth of a bacterial strain by at least 50%.
# L. plantarum = system: L. plantarum; design: key: –: “−” = No inhibition; “+” = Unclear zone; “++” = zone < 1 cm; “+++” = zone ≥ 1 cm; details: L. plantarum LMG 2352; 5 µl at 1 mg/ml; n=3
# Experimental: as §1
# E. faecalis = system: E. faecalis; design: key: –: “−” = No inhibition; “+” = Unclear zone; “++” = zone < 1 cm; “+++” = zone ≥ 1 cm; details: 5 µl at 1 mg/ml, n=3
# Experimental: as §1
# Lactococcus garvieae = system: Lactococcus garvieae; design: key: –: “−” = No inhibition; “+” = Unclear zone; “++” = zone < 1 cm; “+++” = zone ≥ 1 cm; details: Lactococcus garvieae DCC43; 5 µl at 1 mg/ml; n=3
# Experimental: as §1
# Enterococcus avium = system: Enterococcus avium; design: key: –: “−” = No inhibition; “+” = Unclear zone; “++” = zone < 1 cm; “+++” = zone ≥ 1 cm; details: Enterococcus avium LMG 3465; 5 µl at 1 mg/ml; n=3
# Experimental: as §1
# Lactobacillus curvatus = details: 5 µl at 1 mg/ml, n=3
# Experimental: as §1
# S. homonis = S. homonis LMG 3129; 5 µl at 1 mg/ml; n=3
# Experimental: as §1
# E. faecium = details: 5 µl at 1 mg/ml, n=3
# Experimental: as §1
# S. uberis = system: S. uberis; design: key: “-“ = No inhibition; “+” = Unclear zone; “++” = zone < 1 cm; “+++”= zone > 1 cm; details: S. uberis 8008-1; 5 µl at 1 mg/ml; n=3
# Experimental: as §1
# L. monocytogenes = system: L. monocytogenes; design: key: “-“ = No inhibition; “+” = Unclear zone; “++” = zone < 1 cm; “+++”= zone > 1 cm; details: 5 µl at 1 mg/ml, n=3
# Experimental: as §1
# Esherichia coli = system: Esherichia coli; design: key: “-“ = No inhibition; “+” = Unclear zone; “++” = zone < 1 cm; “+++”= zone > 1 cm; details: 5 µl at 1 mg/ml, n=3
# Experimental: as §1
# L. salivarius = system: L. salivarius; design: key: “-“ = No inhibition; “+” = Unclear zone; “++” = zone < 1 cm; “+++”= zone > 1 cm; details: L. salivarius UCC118; 5 µl at 1 mg/ml; n=3
# Experimental: as §1
# Carnobacterium divergens = system: Carnobacterium divergens; design: key: “-“ = No inhibition; “+” = Unclear zone; “++” = zone < 1 cm; “+++”= zone > 1 cm; details: Carnobacterium divergens NCDO 2306; 5 µl at 1 mg/ml; n=3
# Experimental: as §1
# [1] = system: Staphylococcus haemolyticus strains; design: key to Average inhibition score: –: “−” = No inhibition; “+” = Unclear zone; “++” = zone < 1 cm; “+++” = zone ≥ 1 cm
# Experimental: as §1
sequence,measurement,setting,value
"MKFKFNPTGTIVKKLTQYEIAWFKNKHGYYPWEIPRC [K1, enterocin K1]",Average inhibition score,L. ivanovii,+
same,Average inhibition score,L. plantarum,+
same,Average inhibition score,E. faecalis; E. faecalis LMG 2333,+
same,Average inhibition score,E. faecalis; E. faecalis LMG 3330,+
same,Average inhibition score,E. faecalis; E. faecalis LMG 3331,+
same,Average inhibition score,E. faecalis; E. faecalis LMG 3332,+
same,Average inhibition score,E. faecalis; E. faecalis V583,+
same,Average inhibition score,Lactococcus garvieae,+++ (“+++”= zone > 1 cm)
same,Average inhibition score,Enterococcus avium,+
same,Average inhibition score,Lactobacillus curvatus; L. curvatus LMG 2353,+++ (“+++”= zone > 1 cm)
same,Average inhibition score,Lactobacillus curvatus; Lactobacillus curvatus LTH 1174,+++ (“+++”= zone > 1 cm)
same,Average inhibition score,S. homonis,++ (“++” = zone < 1 cm)
same,Average inhibition score,E. faecium; E. faecium AL41,++ (“++” = zone < 1 cm)
same,Average inhibition score,E. faecium; E. faecium L50,++ (“++” = zone < 1 cm)
same,Average inhibition score,E. faecium; E. faecium P13,+++ (“+++”= zone > 1 cm)
same,Average inhibition score,E. faecium; E. faecium P21,++ (“++” = zone < 1 cm)
same,Average inhibition score,S. uberis,-
same,Average inhibition score,L. monocytogenes; L. monocytogenes 223,-
same,Average inhibition score,L. monocytogenes; L. monocytogenes 279,-
same,Average inhibition score,L. monocytogenes; L. monocytogenes 400,-
same,Average inhibition score,L. monocytogenes; L. monocytogenes 403,-
same,Average inhibition score,Esherichia coli; E. coli TG1,-
same,Average inhibition score,Esherichia coli; Esherichia coli DH5α,-
same,Average inhibition score,L. salivarius,-
same,Average inhibition score,Carnobacterium divergens,-
same,Average inhibition score,"[1]; S. haemolyticus 4068, 5 μl at 1 mg/ml, n = 3",–
same,Average inhibition score,"[1]; S. haemolyticus 4069, 5 μl at 1 mg/ml, n = 3",–
same,Average inhibition score,"[1]; S. haemolyticus 4070, 5 μl at 1 mg/ml, n = 3",–
same,Average inhibition score,"[1]; S. haemolyticus 4071, 5 μl at 1 mg/ml, n = 3",–
same,Average inhibition score,"[1]; S. haemolyticus 4072, 5 μl at 1 mg/ml, n = 3",–
same,Average inhibition score,"[1]; S. haemolyticus 4073, 5 μl at 1 mg/ml, n = 3",–
same,Average inhibition score,"[1]; S. haemolyticus 7067_4_21, 5 μl at 1 mg/ml, n = 3",–
same,Average inhibition score,"[1]; S. haemolyticus 7067_4_28, 5 μl at 1 mg/ml, n = 3",–
same,Average inhibition score,"[1]; S. haemolyticus 7067_4_39, 5 μl at 1 mg/ml, n = 3",–
same,Average inhibition score,"[1]; S. haemolyticus 7067_4_48, 5 μl at 1 mg/ml, n = 3",–
same,Average inhibition score,"[1]; S. haemolyticus 7067_4_49, 5 μl at 1 mg/ml, n = 3",–
same,Average inhibition score,"[1]; S. haemolyticus 7067_4_56, 5 μl at 1 mg/ml, n = 3",–
same,Average inhibition score,"[1]; S. haemolyticus 7067_4_60, 5 μl at 1 mg/ml, n = 3",++ (“++” = zone < 1 cm)
same,Average inhibition score,"[1]; S. haemolyticus 7067_4_66, 5 μl at 1 mg/ml, n = 3",–
same,Average inhibition score,"[1]; S. haemolyticus 7067_4_67, 5 μl at 1 mg/ml, n = 3",–
same,Average inhibition score,"[1]; S. haemolyticus 7067_4_71, 5 μl at 1 mg/ml, n = 3",–
same,Average inhibition score,"[1]; S. haemolyticus 7067_4_84, 5 μl at 1 mg/ml, n = 3",–
same,Average inhibition score,"[1]; S. haemolyticus 7068_7_63, 5 μl at 1 mg/ml, n = 3",–
same,Average inhibition score,"[1]; S. haemolyticus LMG 4133, 5 µl at 1 mg/ml, n=3",+
same,Average inhibition score,"[1]; S. haemolyticus SH01, 5 μl at 1 mg/ml, n = 3",–
same,Average inhibition score,"[1]; S. haemolyticus SH04, 5 μl at 1 mg/ml, n = 3",–
same,Average inhibition score,"[1]; S. haemolyticus SH09, 5 μl at 1 mg/ml, n = 3",–
same,Average inhibition score,"[1]; S. haemolyticus SH10, 5 μl at 1 mg/ml, n = 3",+
same,Average inhibition score,"[1]; S. haemolyticus SH14, 5 μl at 1 mg/ml, n = 3",–
same,Average inhibition score,"[1]; S. haemolyticus SH20, 5 μl at 1 mg/ml, n = 3",+
same,Average inhibition score,"[1]; S. haemolyticus SH46, 5 μl at 1 mg/ml, n = 3",–
same,Average inhibition score,"[1]; S. haemolyticus SH47, 5 μl at 1 mg/ml, n = 3",+
same,Inhibition zones at three concentrations,"[1]; six S. haemolyticus strains 4068–4073, 0.04, 0.2 and 1.0 mg/ml, 5 µl spotted",did not result in any inhibition
